Patent US10039836B2, “Polyamine-dihydroxybenzoic acid conjugate hydrogels as iron chelators” (THE UNIVERSITY OF KANSAS, priority 2010, dated 2018)

Assays:
A549 cells = test: MTS cytotoxicity assay (CellTiter 96); format: cell-based; details: ~24 hours incubation
Experimental: (§1) High throughput cell viability assays were completed using standard procedures. Cytotoxicity of polymers was determined by the CellTiter 96® Aqueous Cell Proliferation Assay (Promega). A549 and HUVEC cells were cultured and incubated with polymers for ˜24 hours. Next, the media was removed and replaced with a mixture of 100 μL fresh culture media and 20 μL MTS reagent solution and cells were incubated for 3 hours at 37° C. in a 5% CO2 incubator. The absorbance of each well was then measured at 490 nm using a microtiter plate reader (SpectraMax, M25, Molecular Devices Corp.) to determine relative cell viability.

HUVEC cells = test: MTS cytotoxicity assay (CellTiter 96); format: cell-based; details: ~24 hours incubation
Experimental: as §1

[1] = cited from earlier work

| Structure (SMILES) | toxic effect on A549 cells (A549 cells) | toxic effect on HUVEC cells (HUVEC cells) | relative iron binding constant ([1]; Fe(III)) | Log K ([1]; iron) |
| --- | --- | --- | --- | --- |
| CC(=O)N(O)CCCCCNC(=O)CCC(=O)N(O)CCCCCNC(=O)CCC(=O)N(O)CCCCCN [DFO, desferoxamine] | no toxic effect | considerably toxic even at concentration as low as 10 μg/mL | – | – |
| O=C(N[C@H]1COC(=O)[C@@H](NC(=O)c2cccc(O)c2O)COC(=O)[C@@H](NC(=O)c2cccc(O)c2O)COC1=O)c1cccc(O)c1O [Enterobactin] | – | – | 35.5 | 52 |
